Source: patent US7119064B2, “Use of colostrinin, constituent peptides thereof, and analogs thereof as modulators of intracellular signaling molecules” (Board of Regents, The University of Texas System, priority 1999, dated 2006)
Marks after values point to notes of the source that are not given here.

Experiments:
Format in all cases: cell-based
p53 = experiment: 4HNE-induced activation of p53, Western blot; conditions: 4HNE-treated PC12 cells
Method: (§1) Western blot analysis: PC12 cells were plated at 7×10^6 cells/T75 flask. After exposure to 4HNE, colostrinin or their combination, cells were collected and lysed in 50 millimolar (mM) Tris, 5 mM EDTA, 150 mM NaCl, 0.5% NP-40, 10% glycerol and protease inhibitor cocktail (supplemented with 1 mM Na3VO4, 2 mM EDTA, 1 mM phenylmethylsulfonyl fluoride). Lysates were centrifuged at 14,000g for 10 minutes (min) (4° C.) and 40 μg of protein was fractionated on a 10% SDS-polyaciylamide gel and transferred to protein-optimized membranes (Amersham, Inc.). p53 was detected using specific antibody (DO1; Santa Cruz Biotechnology, Inc.) at a dilution of 1:300. Adducts were detected using an antibody to HNE-protein adducts (Phanningen, Inc.) at a dilution of 1:500. The anti-phospho-JNK antibody (New England Biolabs, Inc., Beverly, Mass.) was raised against a synthetic phosphopeptide (SFMMT*PY*VVTRYYR) corresponding to residues 179–193 of JNK. For visualization of primary antibody binding, all blots were incubated with horseradish peroxidase-conjugated secondary antibody (Amersham, Inc.) at a dilution of 1:2000, followed by chemiluminescence detection (Amersham, Inc.) and autoradiography.
Whether CLN could modulate p53 levels after 4HNE exposure was also investigated.

[1] = test system: 4HNE-protein adducts in PC12 cells; experiment: 4HNE-protein adduct formation, fluorescent microscopy (immunocytochemistry); conditions: 4HNE 25 nM or H2O2 100 μM alone
Source text: Cell cultures: Pheochromocytoma (PC12) cells were provided by Dr. Regino Perez-Polo (University of Texas Medical Branch, Department of Human Biological Chemistry and Genetics) and maintained in EMEM supplemented with 10% fetal bovine serum, penicillin (100 IU/mI) and streptomycin (100 micrograms per milliliter (μg/ml)). Exponentially growing populations of PC12 cells were sub-cultured and used for all experiments.
Immunocytochemistry: PC12 cells grown on cover-slips were fixed overnight in PBS containing 2% paraformaldehyde at 4° C. Cells were permeabilized by 0.3% Triton X-100, washed in PBS then incubated with primary antibody in PBS containing 0.05% Tween 20 (PBS-T). After washing 3 times in PBS-T, FITC-labeled anti-rabbit IgG (Santa Cruz Biotechnology Inc.) was added. Cells were washed (5 times, for 10 min) with PBS-T and mounted on microscope slides in anti-fade solution (Dako, Inc.). Images of cellular immunofluorescence were acquired using a NIKON Eclipse TE300 scanning microscope.
Fluorescent microscopy and Western blot analysis was undertaken to investigate the extent of 4HNE protein-adduct formation in cultures of PC12 cells in the presence of CLN. Cells were pretreated with CLN or LAH in the presence or absence of 4HNE and then analyzed for the formation of 4HNE-protein adducts.

[2] = test system: 4HNE-protein adducts in PC12 cells; experiment: 4HNE-protein adduct levels, Western blot analysis; conditions: 4HNE 25, 12.5, 6.2 nM alone
Method: as §1
To confirm the results generated by immunochemistry, Western blot analysis was used to investigate changes in 4HNE-protein adduct levels in cells treated with 4HNE alone or CLN plus 4HNE.

[3] = test system: intracellular GSH in PC12 cells; experiment: Intracellular glutathione (GSH) level, o-phthalaldehyde fluorimetry
Method: Measurement of glutathione (GSH): In brief, PC12 cells were mock- or pre-treated with CLN or lactalbumin hydrolysate (LAH), both in 10 μg/ml concentration and then exposed to 4HNE (25 nM). PBS-washed (twice) cells were then extracted with 25% (w/v) metaphosphoric acid solution containing 5 mM EDTA. After ultracentrifugation (105,000 g for 30 min), 100 μl of 100 mM phosphate solution (pH 8.0) containing 5 mM EDTA and 10 μl of o-phthalaldehyde OPA(OPD; Molecular Probes, Inc.) was added to the supernatant, and the fluorescence intensity at 420 nm determined with excitation set at 350 nm (A. P. Senft et al., Anal Biochem., 280:80–86 (2000)).
To investigate whether the anti-oxidant effect of CLN was due to protection of intracellular GSH levels, PC12 cells were pre-treated (with CLN or LAH) and exposed to 4HNE, as described above, and changes in GSH levels were determined fluorimetrically. […] OPA (o-phthalaldehyde or phthalic dicarboxaldehyde) is highly fluorescent when it is conjugated to GSH (A.P. Senft et al., Anal Biochem., 280:80–86 (2000)).

[4] = test system: GSH extrusion from PC12 cells; experiment: Reduced GSH in extracellular fluid (GSH extrusion); conditions: 4HNE, relative to CLN- or mock-treated cells
Method: To determine whether the loss of intracellular GSH was due to it's extrusion from the cells or oxidation, the level of reduced GSH in the extra-cellular fluid was evaluated.

JNK = experiment: 4HNE-induced JNK activation, Western blot with anti-phospho-(Thr-183/Tyr-185) JNK antibody; conditions: PC12 cells
Method: as §1, with “For visualization of primary antibody binding, all blots were incubated with horseradish peroxidase-conjugated secondary antibody (Amersham, Inc.) at a dilution of 1:2000, followed by chemiluminescence detection (Amersham, Inc.) and autoradiography.” left out
The effect of CLN on 4HNE-induced activation of JNK in PC12 cells was investigated. The activation of JNK was monitored by Western blot analysis using a highly specific anti-phospho- (Thr-183/Tyr-185) JNK antibody (Materials and Methods).

PC12 cells = experiment: 4HNE-induced apoptosis, annexin V-PE / 7-AAD flow cytometry
Method: FIG. 8. […] PC12 cells were treated with CLN (1 μg per ml) for 15 min and 4HNE (100 nM) was added. Twenty four hours later, cells were harvested and stained with annexin V-PE and 7-AAD. 1, solvent alone; 2, 100 nM 4HNE; 3, TROLOX (vitamin E) 4, col (internal control)+100 nM 4HNE; 5, CLN alone (1 μg per ml); 6, CLN (1 μg per ml)+100 nM 4HNE.
Apoptosis is a specific mode of cell death recognized by a characteristic pattern of morphological, biochemical, and molecular changes. Currently the hallmark of apoptosis in vitro is DNA fragmentation and changes in plasma membrane reorganization that allows for the surface expression of phosphatidyl-D-serine and result in increased membrane permeability. The protection of cells against 4HNE by CLN using increased permeability and cell membrane expression of phosphatidyl-D-serine was investigated.
Cells were simultaneously labeled with fluorochrome-conjugated annexin V-PE (detecting PS asymmetry in the plasma membrane, an early marker of apoptosis), 7-aminoactinomycin D (7-AAD) (detecting increased membrane permeability associated with both apoptosis and necrosis). A dual laser flow cytometer (either a Becton-Dickinson FACScan) was used for the simultaneous detection of the PE-conjugated annexin V (which is excited at […]), 7-AAD (excited at 488 nm and emitting at 670 nm). […]

SH-SY5Y cells [5] = experiment: Protection against retinoic acid toxicity in SH-SY5Y cells, microscopic grading; conditions: for DIFFERENTIATION: Retinoic Acid 20 μM (Day 1) alone
Method: (§2) Retinoic Acid was left on the plate for the duration of the experiment or until washed off. Colostrinin was added to the plate at the indicated doses. When added on Day 1, it was present during the entire experiment. When added on Day 5, it was incubated on the plate for 30 minutes at 37° C. and then removed. The wells were washed twice with PBS before adding β-Amyloid. Cultures were then observed under the microscope and graded.

SH-SY5Y cells [6] = experiment: Anti-apoptotic activity against β-amyloid toxicity in SH-SY5Y cells, microscopic grading; conditions: Beta-amyloid 10 μg/ml added on day 5
Method: as §2, with “To determine whether this was reproducible and to determine the potency of CLN to inhibit retinoic acid toxicity, two concentration of retinoic acid were used to treat cells on day one of the experiment, 20 μM and 40 μM. *Control wells were mock-treated for the duration of the experiment. Retinoic” for “Retinoic”

CCCCCC(O)/C=C/C=O (centres unmarked) [4HNE]
p53 activation, 4HNE alone (p53): induced its activation
4HNE-protein adduct fluorescence, inducer alone [1]: bright fluorescence
4HNE-protein adduct levels (Western blot), 4HNE alone [2]: significant increase in levels of 4HNE-protein adducts
loss of GSH ([3]; 4HNE 25 nM): more than 50%
intracellular GSH levels, 4HNE alone ([3]; 4HNE alone for 30 min): significant reduction of intracellular GSH levels
OPA-GSH-mediated fluorescence of extracellular fluid [4]: significant increase in OPA-GSH-mediated fluorescence
JNK phosphorylation, 4HNE alone (JNK; 4HNE 25 nM alone): potent inducer of JNK phosphorylation
toxic effects / induction of apoptosis (PC12 cells; 4HNE 25 nM, PC12 cells): did not show toxic effects or induce apoptosis
apoptosis, 4HNE alone (PC12 cells; 4HNE 100 nM): Induction of apoptosis

Nc1ncnc2c1nc(Sc1ccc(Cl)cc1)n2[C@@H]1O[C@@H]2COP(=O)(O)O[C@H]2[C@H]1O [8-(4-chlorophenylthio)-cAMP]
4HNE-induced JNK phosphorylation (JNK; pretreatment with inhibitor of JNK activation): prevented 4HNE-induced JNK phosphorylation

OO [H2O2]
4HNE-protein adduct fluorescence, inducer alone [1]: bright fluorescence

CC1=C(/C=C/C(C)=C/C=C/C(C)=C/C(=O)O)C(C)(C)CCC1 [Retinoic Acid]
DIFFERENTIATION (SH-SY5Y cells [5]; cells observed Day 2): ++++ (Day 2)^b (++++ Approximately 100% of the cells)
DIFFERENTIATION (SH-SY5Y cells [5]; cells observed Day 8): + (Day 8)^b (+ Approximately 25% of the cells)
onset of toxicity, retinoic acid alone (SH-SY5Y cells [5]; retinoic acid 20 μM): started showing signs of toxicity by day 6
cell morphology, retinoic acid alone (FIG. 6F) (SH-SY5Y cells [5]; retinoic acid 20 μM added on day 1): Toxic (apoptotic) effect
toxicity, retinoic acid alone (SH-SY5Y cells [5]; retinoic acid 40 μM): the toxicity developed too rapidly

β-Amyloid
cell morphology, Beta-amyloid alone (FIG. 6B) (SH-SY5Y cells [6]): show its toxicity
